Test results as given in patent US20230085307A1, “PYRIDAZINONE COMPOUND AND HERBICIDE” (NISSAN CHEMICAL CORPORATION, priority 2019, published 2023).

Tests used:
[1] = test system: Italian ryegrass; assay: Test Example 4: herbicidal effect by soil treatment (Table 19, symbol K); format: in vivo, Italian ryegrass (Lolium multiflorum)
How it was run: (§1)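 Soil-surface application: an emulsion agent diluted with water to the predetermined dose is sprayed uniformly over seeds lying under roughly 1.5 cm of sterilized diluvial soil. Boxes stay in a greenhouse at 25° C. to 30° C. Three weeks later, each species is graded on previously defined criteria.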

[2] = test system: rice flat sedge; assay: Test Example 3: herbicidal effect by foliage application, Wagner pot (Table 18, symbol E); format: in vivo, rice flat sedge (Cyperus iria); conditions: 320 g/ha
How it was run: (§2)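 Plants were sown in alluvial soil held under 0.1–0.5 cm standing water and grown 14 days in a greenhouse at 25–30 °C. An emulsifiable formulation, water-diluted to the set dose, was then sprayed onto the foliage, and effects were scored three weeks later using previously defined criteria.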

[3] = test system: persian speedwell; assay: Test Example 5: herbicidal effect by foliage application, plastic box (Table 20, symbol R); format: in vivo, Persian speedwell (Veronica persica)
How it was run: (§3)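 Sow seeds spot-wise in sterilized diluvial soil; cover with ~1.5 cm soil. Grow 14 days in greenhouse, 25° C. to 30° C. Spray foliage with emulsion diluted to predetermined amount. Rate effect after 3 weeks.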

[4] = test system: wild oat; assay: Test Example 4: herbicidal effect by soil treatment (Table 19, symbol I); format: in vivo, wild oat (Avena fatua)
How it was run: as §1

[5] = test system: Chinese sprangletop; assay: Test Example 3: herbicidal effect by foliage application, Wagner pot (Table 18, symbol D); format: in vivo, chinese sprangletop (Leptochloa chinensis); conditions: 320 g/ha
How it was run: as §2

[6] = test system: barnyard grass; assay: Test Example 4: herbicidal effect by soil treatment (Table 19, symbol H); format: in vivo, barnyard grass (Echinochloa crus-galli)
How it was run: as §1

[7] = test system: green foxtail; assay: Test Example 4: herbicidal effect by soil treatment (Table 19, symbol G); format: in vivo, green foxtail (Setaria viridis)
How it was run: as §1

[8] = test system: barnyard grass; assay: Test Example 3: herbicidal effect by foliage application, Wagner pot (Table 18, symbol H); format: in vivo, barnyard grass (Echinochloa crus-galli); conditions: 320 g/ha
How it was run: as §2

[9] = test system: chickweed; assay: Test Example 4: herbicidal effect by soil treatment (Table 19, symbol P); format: in vivo, common chickweed (Stellaria media)
How it was run: as §1

[10] = test system: windgrass; assay: Test Example 5: herbicidal effect by foliage application, plastic box (Table 20, symbol L); format: in vivo, windgrass (Apera spica-venti)
How it was run: as §3

[11] = test system: southern crabgrass; assay: Test Example 5: herbicidal effect by foliage application, plastic box (Table 20, symbol F); format: in vivo, southern crabgrass (Digitaria ciliaris)
How it was run: as §3

[12] = test system: blackgrass; assay: Test Example 5: herbicidal effect by foliage application, plastic box (Table 20, symbol J); format: in vivo, blackgrass (Alopecurus myosuroides)
How it was run: as §3

[13] = test system: chickweed; assay: Test Example 5: herbicidal effect by foliage application, plastic box (Table 20, symbol P); format: in vivo, common chickweed (Stellaria media)
How it was run: as §3

[14] = test system: velvetleaf; assay: Test Example 4: herbicidal effect by soil treatment (Table 19, symbol M); format: in vivo, velvetleaf (Abutilon theophrasti)
How it was run: as §1

[15] = test system: wild oat; assay: Test Example 5: herbicidal effect by foliage application, plastic box (Table 20, symbol I); format: in vivo, wild oat (Avena fatua)
How it was run: as §3

[16] = test system: green foxtail; assay: Test Example 5: herbicidal effect by foliage application, plastic box (Table 20, symbol G); format: in vivo, green foxtail (Setaria viridis)
How it was run: as §3

[17] = test system: persian speedwell; assay: Test Example 4: herbicidal effect by soil treatment (Table 19, symbol R); format: in vivo, Persian speedwell (Veronica persica)
How it was run: as §1

[18] = test system: barnyard grass; assay: Test Example 5: herbicidal effect by foliage application, plastic box (Table 20, symbol H); format: in vivo, barnyard grass (Echinochloa crus-galli)
How it was run: as §3

[19] = test system: redroot pigweed; assay: Test Example 4: herbicidal effect by soil treatment (Table 19, symbol N); format: in vivo, redroot pigweed (Amaranthus retroflexus)
How it was run: as §1

[20] = test system: late watergrass; assay: Test Example 1: herbicidal activity, application before weed generation under submerged conditions (Table 16, symbol A); format: in vivo, late watergrass (Echinochloa oryzicola)
How it was run: (§4)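 Emulsion formulation, water-diluted to set dose, was put onto the flooded surface (4 cm depth, alluvial soil) the same day weeds were sown and 2.5-leaf rice transplanted. After 3 weeks at 25-30 °C under glass, each species was rated 0 (≤5% kill) to 5 (≥90% kill).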

[21] = test system: redroot pigweed; assay: Test Example 5: herbicidal effect by foliage application, plastic box (Table 20, symbol N); format: in vivo, redroot pigweed (Amaranthus retroflexus)
How it was run: as §3

[22] = test system: Italian ryegrass; assay: Test Example 5: herbicidal effect by foliage application, plastic box (Table 20, symbol K); format: in vivo, Italian ryegrass (Lolium multiflorum)
How it was run: as §3

[23] = test system: Japanese bulrush; assay: Test Example 1: herbicidal activity, application before weed generation under submerged conditions (Table 16, symbol B); format: in vivo, Japanese bulrush (Schoenoplectus juncoides)
How it was run: as §4

[24] = test system: lambsquarters; assay: Test Example 5: herbicidal effect by foliage application, plastic box (Table 20, symbol O); format: in vivo, lambsquarters (Chenopodium album)
How it was run: as §3

[25] = test system: windgrass; assay: Test Example 4: herbicidal effect by soil treatment (Table 19, symbol L); format: in vivo, windgrass (Apera spica-venti)
How it was run: as §1

[26] = test system: southern crabgrass; assay: Test Example 4: herbicidal effect by soil treatment (Table 19, symbol F); format: in vivo, southern crabgrass (Digitaria ciliaris)
How it was run: as §1

[27] = test system: lambsquarters; assay: Test Example 4: herbicidal effect by soil treatment (Table 19, symbol O); format: in vivo, lambsquarters (Chenopodium album)
How it was run: as §1

[28] = test system: oval-leafed pondweed; assay: Test Example 1: herbicidal activity, application before weed generation under submerged conditions (Table 16, symbol C); format: in vivo, oval-leafed pondweed (Monochoria vaginalis)
How it was run: as §4

[29] = test system: velvetleaf; assay: Test Example 5: herbicidal effect by foliage application, plastic box (Table 20, symbol M); format: in vivo, velvetleaf (Abutilon theophrasti)
How it was run: as §3

[30] = foliage application, AAH 320 g/ha, three weeks after application
[31] = amount of applied herbicide 320 g/ha
[32] = amount of applied herbicide 320 g/ha, foliage application after 14-day growth, evaluated three weeks after application

CCCC(=O)Oc1c(C)nn(C)c(=O)c1-c1c(-c2ccccc2OCOC)sc2ccccc12 [1-115]
K: Italian ryegrass, herbicidal effect rating ([1]; AAH 320 g/ha): 0 (Herbicidal rate of 5% or less (almost no effect)) | herbicidal effect on E (rice flat sedge), rating 0-5 [2]: 2 (Herbicidal rate of 20% or more and less than 40%) | R: persian speedwell, herbicidal effect [3, 30]: 2 (Herbicidal rate of 20% or more and less than 40%) | I: wild oat, herbicidal effect rating ([4]; AAH 320 g/ha): 0 (Herbicidal rate of 5% or less (almost no effect)) | herbicidal effect on D (Chinese sprangletop), rating 0-5 [5]: 2 (Herbicidal rate of 20% or more and less than 40%) | H: barnyard grass, herbicidal effect rating ([6]; AAH 320 g/ha): 2 (Herbicidal rate of 20% or more and less than 40%) | G: green foxtail, herbicidal effect rating ([7]; AAH 320 g/ha): 0 (Herbicidal rate of 5% or less (almost no effect)) | herbicidal effect on H (barnyard grass), rating 0-5 [8]: 4 (Herbicidal rate of 70% or more and less than 90%) | P: chickweed, herbicidal effect rating ([9]; AAH 320 g/ha): 0 (Herbicidal rate of 5% or less (almost no effect)) | L: windgrass, herbicidal effect [10, 30]: 4 (Herbicidal rate of 70% or more and less than 90%) | F: southern crabgrass, herbicidal effect [11, 30]: 4 (Herbicidal rate of 70% or more and less than 90%) | J: blackgrass, herbicidal effect [12, 30]: 4 (Herbicidal rate of 70% or more and less than 90%) | P: chickweed, herbicidal effect [13, 30]: 5 (Herbicidal rate of 90% or more (almost completely withered)) | M: velvetleaf, herbicidal effect rating ([14]; AAH 320 g/ha): 0 (Herbicidal rate of 5% or less (almost no effect)) | I: wild oat, herbicidal effect [15, 30]: 2 (Herbicidal rate of 20% or more and less than 40%) | G: green foxtail, herbicidal effect [16, 30]: 4 (Herbicidal rate of 70% or more and less than 90%) | R: persian speedwell, herbicidal effect rating ([17]; AAH 320 g/ha): 0 (Herbicidal rate of 5% or less (almost no effect)) | H: barnyard grass, herbicidal effect [18, 30]: 2 (Herbicidal rate of 20% or more and less than 40%) | N: redroot pigweed, herbicidal effect rating ([19]; AAH 320 g/ha): 3 (Herbicidal rate of 40% or more and less than 70%) | Herbicidal effect on A: late watergrass (grade 0-5) ([20]; 320 g/ha applied herbicide): 2 (Herbicidal rate of 20% or more and less than 40%) | N: redroot pigweed, herbicidal effect [21, 30]: 5 (Herbicidal rate of 90% or more (almost completely withered)) | K: Italian ryegrass, herbicidal effect [22, 30]: 0 (Herbicidal rate of 5% or less (almost no effect)) | Herbicidal effect on B: Japanese bulrush (grade 0-5) ([23]; 320 g/ha applied herbicide): 0 (Herbicidal rate of 5% or less (almost no effect)) | O: lambsquarters, herbicidal effect [24, 30]: 2 (Herbicidal rate of 20% or more and less than 40%) | L: windgrass, herbicidal effect rating ([25]; AAH 320 g/ha): 0 (Herbicidal rate of 5% or less (almost no effect)) | F: southern crabgrass, herbicidal effect rating ([26]; AAH 320 g/ha): 0 (Herbicidal rate of 5% or less (almost no effect)) | O: lambsquarters, herbicidal effect rating ([27]; AAH 320 g/ha): 0 (Herbicidal rate of 5% or less (almost no effect)) | Herbicidal effect on C: oval-leafed pondweed (grade 0-5) ([28]; 320 g/ha applied herbicide): 2 (Herbicidal rate of 20% or more and less than 40%) | M: velvetleaf, herbicidal effect [29, 30]: 3 (Herbicidal rate of 40% or more and less than 70%)

COCOc1ccccc1-c1sc2c(Cl)cccc2c1-c1c(O)c(C)nn(C)c1=O [4-083]
Herbicidal effect by soil treatment, K: Italian ryegrass [1, 31]: 0 (Herbicidal rate of 5% or less (almost no effect)) | herbicidal effect on rice flat sedge (E) [2]: 5 (Herbicidal rate of 90% or more (almost completely withered)) | Herbicidal effect by foliage application, R: persian speedwell [3, 32]: 5 (Herbicidal rate of 90% or more (almost completely withered)) | Herbicidal effect by soil treatment, I: wild oat [4, 31]: 0 (Herbicidal rate of 5% or less (almost no effect)) | herbicidal effect on Chinese sprangletop (D) [5]: 4 (Herbicidal rate of 70% or more and less than 90%) | Herbicidal effect by soil treatment, H: barnyard grass [6, 31]: 1 (Herbicidal rate of 5% or more and less than 20%) | Herbicidal effect by soil treatment, G: green foxtail [7, 31]: 0 (Herbicidal rate of 5% or less (almost no effect)) | herbicidal effect on barnyard grass (H) [8]: 5 (Herbicidal rate of 90% or more (almost completely withered)) | Herbicidal effect by soil treatment, P: chickweed [9, 31]: 3 (Herbicidal rate of 40% or more and less than 70%) | Herbicidal effect by foliage application, L: windgrass [10, 32]: 4 (Herbicidal rate of 70% or more and less than 90%) | Herbicidal effect by foliage application, F: southern crabgrass [11, 32]: 3 (Herbicidal rate of 40% or more and less than 70%) | Herbicidal effect by foliage application, J: blackgrass [12, 32]: 0 (Herbicidal rate of 5% or less (almost no effect)) | Herbicidal effect by foliage application, P: chickweed [13, 32]: 5 (Herbicidal rate of 90% or more (almost completely withered)) | Herbicidal effect by soil treatment, M: velvetleaf [14, 31]: 1 (Herbicidal rate of 5% or more and less than 20%) | Herbicidal effect by foliage application, I: wild oat [15, 32]: 0 (Herbicidal rate of 5% or less (almost no effect)) | Herbicidal effect by foliage application, G: green foxtail [16, 32]: 3 (Herbicidal rate of 40% or more and less than 70%) | Herbicidal effect by soil treatment, R: persian speedwell [17, 31]: 3 (Herbicidal rate of 40% or more and less than 70%) | Herbicidal effect by foliage application, H: barnyard grass [18, 32]: 4 (Herbicidal rate of 70% or more and less than 90%) | Herbicidal effect by soil treatment, N: redroot pigweed [19, 31]: 3 (Herbicidal rate of 40% or more and less than 70%) | Herbicidal effect, A: late watergrass [20, 31]: 3 (Herbicidal rate of 40% or more and less than 70%) | Herbicidal effect by foliage application, N: redroot pigweed [21, 32]: 1 (Herbicidal rate of 5% or more and less than 20%) | Herbicidal effect by foliage application, K: Italian ryegrass [22, 32]: 0 (Herbicidal rate of 5% or less (almost no effect)) | Herbicidal effect, B: Japanese bulrush [23, 31]: 0 (Herbicidal rate of 5% or less (almost no effect)) | Herbicidal effect by foliage application, O: lambsquarters [24, 32]: 1 (Herbicidal rate of 5% or more and less than 20%) | Herbicidal effect by soil treatment, L: windgrass [25, 31]: 0 (Herbicidal rate of 5% or less (almost no effect)) | Herbicidal effect by soil treatment, F: southern crabgrass [26, 31]: 0 (Herbicidal rate of 5% or less (almost no effect)) | Herbicidal effect by soil treatment, O: lambsquarters [27, 31]: 0 (Herbicidal rate of 5% or less (almost no effect)) | Herbicidal effect, C: oval-leafed pondweed [28, 31]: 0 (Herbicidal rate of 5% or less (almost no effect)) | Herbicidal effect by foliage application, M: velvetleaf [29, 32]: 3 (Herbicidal rate of 40% or more and less than 70%)
